According to US11883526B2 (priority 2019, dated 2024):

Test system: patients with treatment-resistant depression (TRD)
Assay: Adverse events (Example 7)
Type: in vivo, human
Details: for Dissociation, number of participants / Dissociative disorder, % of participants / Dissociative disorder, number of participants / Dizziness, % of participants / Dizziness, number of participants / Dysgeusia, % of participants / Dysgeusia, number of participants / Feeling abnormal, % of participants / Feeling abnormal, number of participants / Headache, % of participants / Headache, number of participants / Hypersomnia, % of participants / Hypersomnia, number of participants / Hypertension, number of participants / Hypoesthesia oral, % of participants / Hypoesthesia oral, number of participants / Insomnia, number of participants / Nasal discomfort, number of participants / Nausea, % of participants / Nausea, number of participants / Oropharyngeal pain, number of participants / Polyuria, number of participants / Sedation, % of participants / Sedation, number of participants / Throat irritation, % of participants / Throat irritation, number of participants / Total with events, % of participants / Total with events, number of participants / Tunnel vision, number of participants / Vertigo, % of participants / Vertigo, number of participants / Vision blurred, number of participants / Dissociation, % of participants / Hypertension, % of participants / Insomnia, % of participants / Nasal discomfort, % of participants / Oropharyngeal pain, % of participants / Polyuria, % of participants / Tunnel vision, % of participants / Vision blurred, % of participants: double-blind
Description: Adverse events were monitored throughout the study. Other safety assessments (i.e., laboratory tests, vital signs, physical examination) were performed at pre-specified time points. Vital signs, the Clinician Administered Dissociative States Scale (CADSS; Bremner, “Measurement of dissociative states with the clinician-administered dissociative states scale (CADSS)”, J. Traumatic Stress, 1998, 11(1):125-136), and the 4-item positive symptom subscale from the Brief Psychiatric Rating Scale (BPRS; Overall, “The Brief Psychiatric Rating Scale. Psychological Reports”, 1962, 10:799-812) were assessed pre-dose, at 40 minutes, and 2 hours post-dose.
Safety data were analyzed in Period 1, Period 2, double-blind, and open-label data sets, for all subjects receiving at least 1 dose of study medication.

## CN[C@]1(c2ccccc2Cl)CCCCC1=O [esketamine, (S)-2-(2-chlorophenyl)-2-(methylamino)cyclohexanone]
double-blind phase
  participants with adverse events leading to discontinuation of study drug: 5%
28 mg
  Dissociation, number of participants: 0
  Dissociative disorder, % of participants: (11) %
  Dissociative disorder, number of participants: 2
  Dizziness, % of participants: (21) %
  Dizziness, number of participants: 4
  Dysgeusia, % of participants: (11) %
  Dysgeusia, number of participants: 2
  Feeling abnormal, % of participants: (11) %
  Feeling abnormal, number of participants: 2
  Headache, % of participants: (32) %
  Headache, number of participants: 6
  Hypersomnia, % of participants: (11) %
  Hypersomnia, number of participants: 2
  Hypertension, number of participants: 0
  Hypoesthesia oral, % of participants: (5) %
  Hypoesthesia oral, number of participants: 1
  Insomnia, number of participants: 0
  Nasal discomfort, number of participants: 0
  Nausea, % of participants: (11) %
  Nausea, number of participants: 2
  Oropharyngeal pain, number of participants: 0
  Polyuria, number of participants: 0
  Sedation, % of participants: (5) %
  Sedation, number of participants: 1
  Throat irritation, % of participants: (5) %
  Throat irritation, number of participants: 1
  Total with events, % of participants: (58) %
  Total with events, number of participants: 11
  Tunnel vision, number of participants: 0
  Vertigo, % of participants: (11) %
  Vertigo, number of participants: 2
  Vision blurred, number of participants: 0
56 mg
  Dissociation, % of participants: (35) %
  Dissociation, number of participants: 7
  Dissociative disorder, % of participants: (5) %
  Dissociative disorder, number of participants: 1
  Dizziness, % of participants: (40) %
  Dizziness, number of participants: 8
  Dysgeusia, % of participants: (15) %
  Dysgeusia, number of participants: 3
  Feeling abnormal, % of participants: (5) %
  Feeling abnormal, number of participants: 1
  Headache, % of participants: (15) %
  Headache, number of participants: 3
  Hypersomnia, number of participants: 0
  Hypertension, % of participants: (10) %
  Hypertension, number of participants: 2
  Hypoesthesia oral, % of participants: (20) %
  Hypoesthesia oral, number of participants: 4
  Insomnia, % of participants: (10) %
  Insomnia, number of participants: 2
  Nasal discomfort, % of participants: (10) %
  Nasal discomfort, number of participants: 2
  Nausea, % of participants: (20) %
  Nausea, number of participants: 4
  Oropharyngeal pain, % of participants: (5) %
  Oropharyngeal pain, number of participants: 1
  Polyuria, % of participants: (10) %
  Polyuria, number of participants: 2
  Sedation, % of participants: (10) %
  Sedation, number of participants: 2
  Throat irritation, number of participants: 0
  Total with events, % of participants: (80) %
  Total with events, number of participants: 16
  Tunnel vision, number of participants: 0
  Vertigo, % of participants: (5) %
  Vertigo, number of participants: 1
  Vision blurred, number of participants: 0
84 mg
  Dissociation, % of participants: (24) %
  Dissociation, number of participants: 4
  Dissociative disorder, % of participants: (24) %
  Dissociative disorder, number of participants: 4
  Dizziness, % of participants: (47) %
  Dizziness, number of participants: 8
  Dysgeusia, % of participants: (29) %
  Dysgeusia, number of participants: 5
  Feeling abnormal, % of participants: (6) %
  Feeling abnormal, number of participants: 1
  Headache, % of participants: (18) %
  Headache, number of participants: 3
  Hypersomnia, number of participants: 0
  Hypertension, % of participants: (6) %
  Hypertension, number of participants: 1
  Hypoesthesia oral, % of participants: (12) %
  Hypoesthesia oral, number of participants: 2
  Insomnia, number of participants: 0
  Nasal discomfort, % of participants: (6) %
  Nasal discomfort, number of participants: 1
  Nausea, % of participants: (24) %
  Nausea, number of participants: 4
  Oropharyngeal pain, % of participants: (12) %
  Oropharyngeal pain, number of participants: 2
  Polyuria, number of participants: 0
  Sedation, % of participants: (6) %
  Sedation, number of participants: 1
  Throat irritation, % of participants: (12) %
  Throat irritation, number of participants: 2
  Total with events, % of participants: (88) %
  Total with events, number of participants: 15
  Tunnel vision, % of participants: (12) %
  Tunnel vision, number of participants: 2
  Vertigo, % of participants: (6) %
  Vertigo, number of participants: 1
  Vision blurred, % of participants: (12) %
  Vision blurred, number of participants: 2
Esketamine Total
  Dissociation, % of participants: (20) %
  Dissociation, number of participants: 11
  Dissociative disorder, % of participants: (13) %
  Dissociative disorder, number of participants: 7
  Dizziness, % of participants: (36) %
  Dizziness, number of participants: 20
  Dysgeusia, % of participants: (18) %
  Dysgeusia, number of participants: 10
  Feeling abnormal, % of participants: (7) %
  Feeling abnormal, number of participants: 4
  Headache, % of participants: (21) %
  Headache, number of participants: 12
  Hypersomnia, % of participants: (4) %
  Hypersomnia, number of participants: 2
  Hypertension, % of participants: (5) %
  Hypertension, number of participants: 3
  Hypoesthesia oral, % of participants: (13) %
  Hypoesthesia oral, number of participants: 7
  Insomnia, % of participants: (4) %
  Insomnia, number of participants: 2
  Nasal discomfort, % of participants: (5) %
  Nasal discomfort, number of participants: 3
  Nausea, % of participants: (18) %
  Nausea, number of participants: 10
  Oropharyngeal pain, % of participants: (5) %
  Oropharyngeal pain, number of participants: 3
  Polyuria, % of participants: (4) %
  Polyuria, number of participants: 2
  Sedation, % of participants: (7) %
  Sedation, number of participants: 4
  Throat irritation, % of participants: (5) %
  Throat irritation, number of participants: 3
  Total with events, % of participants: (75) %
  Total with events, number of participants: 42
  Tunnel vision, % of participants: (4) %
  Tunnel vision, number of participants: 2
  Vertigo, % of participants: (7) %
  Vertigo, number of participants: 4
  Vision blurred, % of participants: (4) %
  Vision blurred, number of participants: 2
In vivo
  deaths: No death
open-label phase
  adverse event incidence: dizziness: 38.6%
  adverse event incidence: dysgeusia: 22.8%
  adverse event incidence: headache: 14.0%
  adverse event incidence: nausea: 15.8%
  adverse event incidence: sedation: 10.5%
  participants reporting transient dissociative symptoms: 24.6%
  participants with adverse events leading to discontinuation of study drug: 2%
